Converted amounts (≈) assume the structure as drawn. Where only a bound is given, the exact number is not on record here.

The values below come from ChEMBL document CHEMBL1145073, “DNA binding ligands targeting drug-resistant bacteria: structure, activity, and pharmacology” (J Med Chem, 2003).

What all share (type): functional
Assay [1] relates to Enterococcus faecalis. Kind of assay: In vitro antimicrobial activity against vancomycin-susceptible Enterococcus faecalis 29212.
Assay [2] is described as follows: In vitro antimicrobial activity against penicillin-intermediate Streptococcus pneumoniae 49619.
Assay [3] deals with Staphylococcus aureus. As to the kind of experiment: In vitro antimicrobial activity against methicillin resistant Staphylococcus aureus 27660.

Regarding `Cn1cc(NC(=O)c2cc(NC(=O)c3cc(NC(=O)c4ccc(OC(F)(F)F)cc4)cn3C)cn2C)cc1C(=O)NCCN1CCOCC1`, the MIC in assay [1] was more than 32 µg/mL; in assay [2], 1 µg/mL (≈ 1.46 µM).
Take `CSc1ccsc1-c1cc(C(=O)Nc2cc(C(=O)Nc3cc(C(=O)NCCN4CCOCC4)n(C)c3)n(C)c2)n(C)c1`: the MIC in assay [1] was 8 µg/mL (≈ 13.1 µM); in assay [2] it was 0.125 µg/mL (≈ 0.205 µM); in assay [3] it was 4 µg/mL (≈ 6.56 µM).
Regarding `Cn1cc(NC(=O)c2cc(NC(=O)c3cc(-c4ccco4)cn3C)cn2C)cc1C(=O)NCCN1CCOCC1`, the results for the MIC in assay [1], in assay [2] and in assay [3] were 32 µg/mL (≈ 58.4 µM), 1 µg/mL (≈ 1.83 µM) and 32 µg/mL (≈ 58.4 µM), respectively.
Regarding `Cn1cc(NC(=O)c2cc(NC(=O)c3cc(-c4cc(Cl)c(Cl)s4)cn3C)cn2C)cc1C(=O)NCCN1CCOCC1`, the MIC in assay [1] was 8 µg/mL (≈ 12.6 µM); in assay [2], 4 µg/mL (≈ 6.32 µM); in assay [3] it was 8 µg/mL (≈ 12.6 µM).
For the molecule `Cn1cc(NC(=O)c2cc(NC(=O)c3cc(NC(=O)c4sc5cc(F)c(F)cc5c4Cl)cn3C)cn2C)cc1C(=O)NCCN1CCOCC1`, the figures for the MIC in assay [1] and in assay [2] were 8 µg/mL (≈ 11 µM) and 0.5 µg/mL (≈ 0.688 µM), respectively.
With `Cn1cc(NC(=O)c2cc(NC(=O)c3cc(-c4ccc5nsnc5c4)cn3C)cn2C)cc1C(=O)NCCN1CCOCC1`, the results for the MIC in assay [1], in assay [2] and in assay [3] were 1 µg/mL (≈ 1.62 µM), 0.5 µg/mL (≈ 0.812 µM) and 8 µg/mL (≈ 13 µM), respectively.
For the molecule `Cn1cc(NC(=O)c2cc(NC(=O)c3cc(-c4ccccc4F)cn3C)cn2C)cc1C(=O)NCCN1CCOCC1`, the MIC was determined as 0.5 µg/mL (≈ 0.869 µM) in assay [1], 1 µg/mL (≈ 1.74 µM) in assay [2] and 8 µg/mL (≈ 13.9 µM) in assay [3].
The like results for `Cn1cc(NC(=O)c2cc(NC(=O)c3cc(-c4sccc4O)cn3C)cn2C)cc1C(=O)NCCN1CCOCC1` were, in that order, more than 32 µg/mL, more than 32 µg/mL and more than 32 µg/mL.
For the molecule `Cn1cc(NC(=O)c2cc(NC(=O)c3cc(NC(=O)c4nsc5ccccc45)cn3C)cn2C)cc1C(=O)NCCN1CCOCC1`, the MIC in assay [1] stood at 1 µg/mL (≈ 1.52 µM); in assay [2] it was 0.125 µg/mL (≈ 0.19 µM).
The matching figures for `Cn1cc(NC(=O)c2cc(NC(=O)c3cc(NC(=O)c4csc(-c5cccnc5)n4)cn3C)cn2C)cc1C(=O)NCCN1CCOCC1`: more than 32 µg/mL and 2 µg/mL (≈ 2.92 µM).
Consider `Cn1cc(NC(=O)c2cc(NC(=O)c3cc(NC(=O)c4ccc(OC(F)F)cc4)cn3C)cn2C)cc1C(=O)NCCN1CCOCC1`, for which the minimal inhibitory concentration (MIC) in assay [1] was 4 µg/mL (≈ 6 µM); in assay [2], 0.062 µg/mL (≈ 0.093 µM).
The matching figures for `Cn1cc(NC(=O)c2cc(NC(=O)c3cc(NC(=O)c4cn5ccccc5n4)cn3C)cn2C)cc1C(=O)NCCN1CCOCC1`: 2 µg/mL (≈ 3.12 µM) and 0.031 µg/mL (≈ 0.0484 µM).
Take `Cn1cc(NC(=O)c2cc(NC(=O)c3cc(NC(=O)c4cc5ccccc5s4)cn3C)cn2C)cc1C(=O)NCCN1CCOCC1`: the MIC in assay [1] was determined as 32 µg/mL (≈ 48.7 µM); in assay [2], 1 µg/mL (≈ 1.52 µM).
The matching figures for `Cn1cc(NC(=O)c2cc(NC(=O)c3cc(NC(=O)c4ccoc4)cn3C)cn2C)cc1C(=O)NCCN1CCOCC1`: more than 32 µg/mL and 8 µg/mL (≈ 13.5 µM).
For `Cn1cc(NC(=O)c2cc(NC(=O)c3cc(NC(=O)c4sc5cc(Cl)sc5c4Cl)cn3C)cn2C)cc1C(=O)NCCN1CCOCC1`, the results for the MIC in assay [1] and in assay [2] were 16 µg/mL (≈ 21.9 µM) and 0.125 µg/mL (≈ 0.171 µM), respectively.
Turning to `Cn1cc(NC(=O)c2cc(NC(=O)c3cc(NC(=O)c4cn5cccnc5n4)cn3C)cn2C)cc1C(=O)NCCN1CCOCC1`, the MIC worked out at 8 µg/mL (≈ 12.5 µM) in assay [1] and 0.5 µg/mL (≈ 0.779 µM) in assay [2].
Regarding `Cn1cc(NC(=O)c2cc(NC(=O)c3cc(NC(=O)c4ccc5c(c4)OCO5)cn3C)cn2C)cc1C(=O)NCCN1CCOCC1`, the MIC in assay [1] stood at 16 µg/mL (≈ 24.8 µM); in assay [2], 2 µg/mL (≈ 3.1 µM).
Take `COc1cc(Cl)ccc1C(=O)Nc1cc(C(=O)Nc2cc(C(=O)Nc3cc(C(=O)NCCN4CCOCC4)n(C)c3)n(C)c2)n(C)c1`: the MIC in assay [1] was 8 µg/mL (≈ 12 µM); in assay [2], 0.5 µg/mL (≈ 0.752 µM).
The like results for `Cn1cc(NC(=O)c2cc(NC(=O)c3cc(NC(=O)c4sc5cc(Cl)ccc5c4Cl)cn3C)cn2C)cc1C(=O)NCCN1CCOCC1` were, in that order, 32 µg/mL (≈ 44.1 µM) and 0.25 µg/mL (≈ 0.345 µM).
As for `Cn1cc(NC(=O)c2cc(NC(=O)c3cc(NC(=O)c4cnc5ccccc5n4)cn3C)cn2C)cc1C(=O)NCCN1CCOCC1`, the MIC in assay [1] and in assay [2] was more than 32 µg/mL in each case.
For the molecule `Cn1cc(NC(=O)c2cc(NC(=O)c3cc(NC(=O)c4sc(-c5ccccc5)cc4Cl)cn3C)cn2C)cc1C(=O)NCCN1CCOCC1`, the figures for the minimum inhibitory concentration (MIC) in assay [1] and in assay [2] were more than 32 µg/mL and 2 µg/mL (≈ 2.79 µM), respectively.
The like results for `Cn1cc(NC(=O)c2cc(NC(=O)c3cc(NC(=O)c4cccn4C)cn3C)cn2C)cc1C(=O)NCCN1CCOCC1` were, in that order, more than 32 µg/mL and 32 µg/mL (≈ 53 µM).
Take `Cn1cc(NC(=O)c2cc(NC(=O)c3cc(NC(=O)c4ccc5ccccc5n4)cn3C)cn2C)cc1C(=O)NCCN1CCOCC1`: the minimum inhibitory concentration (MIC) is 32 µg/mL (≈ 49.1 µM) in assay [1] and 1 µg/mL (≈ 1.53 µM) in assay [2].
For `Cn1cc(NC(=O)c2cc(NC(=O)c3cc(NC(=O)c4cc5ccccc5oc4=O)cn3C)cn2C)cc1C(=O)NCCN1CCOCC1`, the MIC in assay [1] turned out to be 16 µg/mL (≈ 23.9 µM); in assay [2] it was 0.5 µg/mL (≈ 0.748 µM).
The matching figures for `Cn1cc(NC(=O)c2cc(NC(=O)c3cc(NC(=O)c4ccccc4)cn3C)cn2C)cc1C(=O)NCCN1CCOCC1`: 32 µg/mL (≈ 53.3 µM) and 16 µg/mL (≈ 26.6 µM).
